From patent publication US20160313301A1, “METHOD FOR PREDICTING ANTITUMOR EFFICACY OF HSP90 INHIBITOR IN CANCER TREATMENT” (NIPPON KAYAKU KABUSHIKI KAISHA, priority 2013, published 2016)

System: client proteins and HSP90-related proteins in TOV-21G tumor
Assay: Immunoblot: change in expression amount of proteins in TOV-21G tumor after administration
Format: in vivo, human
Conditions: 40 mg/kg tail vein
Protocol: Thirty micrograms of total protein was subjected to electrophoresis in 8% acrylamide gel. Then, the protein was transferred onto a PVDF membrane at a voltage of 100 V for 60 min at 4 °C. The PVDF membrane on which the protein had been transferred was blocked in TBS-Tween (0.1%) containing 5% milk at normal temperature for 60 min, followed by incubating with each of primary antibodies described below overnight at 4 °C. • Primary antibody (supplier, product number, dilution ratio, exposure time) • EGFR (Santa Cruz, sc-003, 1:500, 1 min) • HER2 (Santa Cruz, sc-284, 1:2000, 5 sec) • HER3 (Santa Cruz, sc-285, 1:400, 1 min) • Met (Santa Cruz, sc-161, 1:500, 5 min) • IGF-1R (Cell Signaling, #3027, 1:500, 15 sec) • Raf-1 (Santa Cruz, sc-133, 1:300, 5 min) • Stat3 (BD Transduction Laboratory, 610189, 1:500, 15 sec) • pAkt (Cell Signaling, #4058S, 1:500, 1 min) • Akt (Cell Signaling, #4691S, 1:2000, 15 sec) • pERK (Santa Cruz, sc-16982-R, 1:500, 1 min) • ERK (Invitrogen, 44-654G, 1:1000, 15 sec) • mTOR (Cell Signaling, #2983S, 1:500, 15 sec) • MEK (Cell Signaling, #9122S, 1:500, 1 min) • HSP90 (Enzo Life Science, SPA-830, 1:500, 15 sec) • HSP70 (Enzo Life Science, SPA-810, 1:2000, 15 sec) • Actin (Santa Cruz, sc-8432/HRP, 1:300, 5 min)
After incubation, the blot membrane was washed with TBS-Tween (0.1%) at normal temperature for 10 min three times to thereby remove excessive primary antibodies. Then, the membrane was incubated with an appropriate secondary antibody (anti-rabbit IgG HRP conjugate or anti-mouse IgG HRP conjugate) at normal temperature for 60 min. The membrane was washed with TBS-Tween (0.1%) at normal temperature for 10 min three times to thereby remove excessive secondary antibodies. Then, the membrane was incubated with ECL Western Blotting Detection Reagents (GE Healthcare) for 2 min, followed by exposing to an X-ray film. Thus, the signal of the intended protein was detected.
Tumors to be transplanted derived from human ovarian cancer cell lines SK-OV-3 and TOV-21G were prepared in the same manner as in Example 1.
Protein extraction liquid was obtained from each tumor as follows. The human ovarian cancer tumors maintained by passage in SCID mice were transplanted subcutaneously to the dorsums of SCID mice with trocars. When the tumor volume of each tumor reached about 300 mm^3, the triazole (A-1) synthesized as the HSP90 inhibitor in Synthetic Example 1 was administered into a tail vein of each of the mice at a dose of 40 mg/kg in the same manner as in Example 1. The tumors were removed before and 4 and 24 hours after administration. At each time point, the tumors were removed from three mice for the SK-OV-3 tumor and two mice for the TOV-21G tumor. Protein extraction liquids were obtained in the same manner as in Example 1. The total protein amount in each of the extraction liquids was quantified in the same manner as in Example 1.
The immunoblot method was used to verify change in expression amounts of the client proteins and the HSP90-related proteins in the SK-OV-3 and TOV-21G tumors to which the triazole compound (A-1) had been administered, in the same manner as in Example 1. The types and dilution ratios of primary antibodies and secondary antibodies used were the same as in Example 1.

Compound: CC(C)c1cc(-c2n[nH]c(=O)n2-c2ccc(CN3CCN(C)CC3)cc2)c(O)cc1O [A-1, 5-(2,4-dihydroxy-5-isopropyl-phenyl)-4-[4-(4-methyl-piperazin-1-ylmethyl)-phenyl]-2,4-dihydro-[1,2,4]triazol-3-one]
- expression amount of total Akt: not changed
- expression amount of total ERK: not changed
- expression level of EGFR: decreased
- expression level of HER2: decreased
- expression level of IGF-1R: decreased
- expression level of Met: decreased
- expression level of mTOR: decreased
- expression level of pAkt: decreased
